O=C1c2ccccc2-c2ccccc21
solubility (mole fraction)
Conditions	in diisopropyl ether	in ethanol	in ethyl acetate	in n-butanol	in tetrachloromethane	in toluene
283.15 K	0.0297	0.0209	0.123	0.0267	0.114	0.12
288.15 K	0.0356	0.0241	0.142	0.0321	0.142	0.142
293.15 K	0.0426	0.0301	0.173	0.0402	0.158	0.164
298.15 K	0.0541	0.043	0.221	0.0498	0.192	0.197
303.15 K	0.0642	0.0562	0.244	0.0685	0.241	0.228
308.15 K	0.0815	0.0976	0.284	0.0848	0.291	0.264
313.15 K	0.108	0.144	0.335	0.126	0.347	0.315
318.15 K	0.137	0.207	0.395	0.162	0.403	0.371
323.15 K	0.18	0.292	0.465	0.236	0.462	0.41
328.15 K	0.228	0.409	0.548	0.311	0.519	0.485
333.15 K	0.309	0.548	0.63	0.4	0.582	0.55

Source: BigSolDB 2.1
